These results are taken from patent publication US8124380B2 (priority 2003, dated 2012).

One assay concerns mIgG E4-1. It counts as binding, murine.
Assay [1] concerns mIgG F22-4, D15-7, A2-1, E4-1, C1-7. It counts as binding, murine.
For another assay, the system named is mIgG A2-1. It counts as binding, murine.
Another assay has as its system mIgG D15-7. It counts as binding, murine.
A further assay concerns mIgG C1-7. It counts as binding, murine.
In the next assay the test system is mIgG F22-4. Type of assay: binding, murine.
The next assay relates to LPS 2a. Details: species or system mice. The conditions noted are these: in vivo.

pIC50: −log10 of the molar value. “And” between values parts separate entries of the source, which are not always exact repeats. Equal entries are not always repeated.

As for `COC1OC(C)C(OC2OC(CO)C(O)C(O)C2O)C(OC2OC(C)C(O)C(O)C2OC2OC(C)C(O)C(O)C2OC2OC(CO)C(O)C(O)C2NC(C)=O)C1O` (stereo not shown) [DAB(E)C], the pIC50 in the assay with mIgG E4-1, in the assay on mIgG A2-1, with mIgG D15-7, with mIgG C1-7 and in the assay with mIgG F22-4 was less than 3.00 each time. Further, in assay [1], the “recognition (binding) by the mIgG” value is listed as “absence of recognition”.

With `COC1OC(C)C(OC2OC(CO)C(O)C(O)C2O)C(OC2OC(C)C(O)C(O)C2O)C1O` (stereo not shown) [B(E)C], the pIC50 in the assay with mIgG E4-1, in the assay with mIgG A2-1, with mIgG D15-7, with mIgG C1-7 and in the assay with mIgG F22-4 was less than 3.00 each time.

Turning to `COC1OC(C)C(O)C(O)C1OC1OC(CO)C(O)C(OC2OC(C)C(OC3OC(CO)C(O)C(O)C3O)C(O)C2O)C1NC(C)=O` (stereo not shown) [(E)CDA], the pIC50 (in general, −log10 of the IC50, conventionally taken in molar units) was less than 3.00 with mIgG E4-1; less than 3.00 in the assay with mIgG A2-1; less than 3.00 in the assay with mIgG D15-7; less than 3.00 with mIgG C1-7; 3.74 with mIgG F22-4.

With `COC1OC(C)C(OC2OC(CO)C(O)C(O)C2O)C(OC2OC(C)C(O)C(O)C2OC2OC(C)C(O)C(O)C2OC2OC(CO)C(O)C(OC3OC(C)C(OC4OC(CO)C(O)C(O)C4O)C(OC4OC(C)C(O)C(O)C4OC4OC(C)C(O)C(O)C4OC4OC(CO)C(O)C(O)C4NC(C)=O)C3O)C2NC(C)=O)C1O` [DA B(E)CDA B(E)C, Methyl (2-acetamido-2-deoxy-β-D-glucopyranosyl)-(1→2)-(α-L-rhamnopyranosyl)-(1→2)-(α-L-rhamnopyranosyl)-(1→3)-[α-D-glucopyranosyl-(1→4)]-(α-L-rhamnopyranosyl)-(1→3)-(2-acetamido-2-deoxy-β-D-glucopyranosyl)-(1→2)-(α-L-rhamnopyranosyl)-(1→2)-(α-L-rhamnopyranosyl)-(1→3)-[α-D-glucopyranosyl-(1→4)]-α-L-rhamnopyranoside], the pIC50 in the assay with mIgG E4-1 is 5.36; in the assay with mIgG A2-1, 5.52; in the assay with mIgG D15-7, 4.92; in the assay on mIgG C1-7 it was 4.72; in the assay with mIgG F22-4, 5.30. In the assay on mIgG A2-1, the “fold increase in binding” value is given as 100 fold.

With “TT: tetanus toxoid alone (140 μg/mice/injection), control [reference compound]”, in the assay on LPS 2a, the “Anti-LPS 2a antibody titer, individual mouse (1)” value was determined as 0 and the “Anti-LPS 2a antibody titer, individual mouse (2)” value worked out at 0.

As for `CO[C@@H]1O[C@@H](C)[C@H](O)[C@@H](O)[C@H]1O[C@@H]1O[C@H](CO)[C@@H](O)[C@H](O[C@@H]2O[C@@H](C)[C@H](O[C@H]3O[C@H](CO)[C@@H](O)[C@H](O)[C@H]3O)[C@@H](O[C@@H]3O[C@@H](C)[C@H](O)[C@@H](O)[C@H]3O)[C@H]2O)[C@H]1NC(C)=O` [B(E)CDA], the negative logarithm of the IC50 (pIC50) is 4.12 in the assay on mIgG E4-1; 3.46 in the assay with mIgG A2-1; 3.62 in the assay with mIgG D15-7; 3.40 with mIgG C1-7; 5.60 with mIgG F22-4.

As to `CO[C@@H]1O[C@H](CO)[C@@H](O)[C@H](O[C@@H]2O[C@@H](C)[C@H](O[C@H]3O[C@H](CO)[C@@H](O)[C@H](O)[C@H]3O)[C@@H](O[C@@H]3O[C@@H](C)[C@H](O)[C@@H](O)[C@H]3O[C@@H]3O[C@@H](C)[C@H](O)[C@@H](O)[C@H]3O)[C@H]2O)[C@H]1NC(C)=O` [AB(E)CD, Methyl α-L-rhamnopyranosyl-(1→2)-α-L-rhamnopyranosyl-(1→3)-[α-D-glucopyranosyl-(1→4)]-α-L-rhamnopyranosyl-(1→3)-2-acetamido-2-deoxy-β-D-glucopyranoside], the pIC50 with mIgG E4-1 was 3.54; with mIgG A2-1 it was 3.42; in the assay on mIgG D15-7 it was 3.31; with mIgG C1-7, 3.13; in the assay with mIgG F22-4 it was 4.68 and 4.67.

Regarding `CO[C@@H]1O[C@H](CO)[C@@H](O)[C@H](O[C@@H]2O[C@@H](C)[C@H](O[C@H]3O[C@H](CO)[C@@H](O)[C@H](O)[C@H]3O)[C@@H](O[C@@H]3O[C@@H](C)[C@H](O)[C@@H](O)[C@H]3O)[C@H]2O)[C@H]1NC(C)=O` [B(E)CD, Methyl α-L-rhamnopyranosyl-(1→3)-[α-D-glucopyranosyl-(1→4)]-α-L-rhamnopyranosyl-(1→3)-2-acetamido-2-deoxy-β-D-glucopyranoside], the pIC50 in the assay with mIgG E4-1 was 4.06; in the assay with mIgG A2-1, less than 3.00; in the assay with mIgG D15-7 it was 3.70; in the assay on mIgG C1-7, less than 3.00; in the assay on mIgG F22-4 it was 5.30.

In the case of `CO[C@@H]1O[C@@H](C)[C@H](O)[C@@H](O)[C@H]1O[C@@H]1O[C@@H](C)[C@H](O)[C@@H](O)[C@H]1O[C@@H]1O[C@H](CO)[C@@H](O)[C@H](O[C@@H]2O[C@@H](C)[C@H](O[C@H]3O[C@H](CO)[C@@H](O)[C@H](O)[C@H]3O)[C@@H](O)[C@H]2O)[C@H]1NC(C)=O` [(E)CDAB, Methyl α-D-glucopyranosyl-(1→4)-α-L-rhamnopyranosyl-(1→3)-2-acetamido-2-deoxy-β-D-glucopyranosyl-(1→2)-α-L-rhamnopyranosyl-(1→2)-α-L-rhamnopyranoside], the pIC50 in the assay with mIgG E4-1 was less than 3.00; with mIgG A2-1, less than 3.00; in the assay on mIgG D15-7, less than 3.00; in the assay on mIgG C1-7, less than 3.00; in the assay on mIgG F22-4 it was 3.45.

In the case of `COC1OC(C)C(OC2OC(CO)C(O)C(O)C2O)C(OC2OC(C)C(O)C(O)C2OC2OC(C)C(O)C(O)C2OC2OC(CO)C(O)C(OC3OC(C)C(OC4OC(CO)C(O)C(O)C4O)C(OC4OC(C)C(O)C(O)C4O)C3O)C2NC(C)=O)C1O` (stereo not shown) [B(E)CDA B(E)C], the pIC50 in the assay on mIgG E4-1 is 4.92; in the assay with mIgG A2-1, 4.89; in the assay with mIgG D15-7 it was 4.22; in the assay with mIgG C1-7 it was 3.62; in the assay on mIgG F22-4, 6.66. The “improving Ab binding by a factor” value in the assay with mIgG E4-1 and with mIgG D15-7 was approximately 4 in each case. For the same molecule, the “gain in recognition / binding improvement by a factor” value in the assay on mIgG A2-1 is approximately 25.
